Data published in US7999115B2, “Spiro antibiotic derivatives” (Actelion Pharmaceutical Ltd., priority 2006, dated 2011).
Values after ≈ are worked out from the molar mass of the structure shown.

Experiments:
Assay type in all cases: cell-based
[1] = tested on: S. aureus A798; assay: MIC by broth microdilution (NCCLS), S. aureus A798; conditions: cation-adjusted Mueller-Hinton Broth, pH 7.2-7.3; for MIC: Staphylococcus aureus, A798, second table
Procedure: (§1) These assays have been performed following the description given in “Methods for dilution Antimicrobial Susceptibility Tests for Bacteria that Grow Aerobically, 4th ed.; Approved standard: NCCLS Document M7-A4; National Committee for Clinical Laboratory Standards Villanova, Pa., USA, 1997”. Minimal inhibitory concentrations (MICs; mg/l) were determined in cation-adjusted Mueller-Hinton Broth (BBL) by a microdilution method following NCCLS guidelines (National Committee for Clinical Laboratory Standards. Methods for Dilution Antimicrobial Susceptibility). The pH of the test medium was 7.2-7.3. All Example compounds were tested against several Gram positive and Gram negative bacteria.

[2] = tested on: S. pneumoniae 49619; assay: MIC by broth microdilution (NCCLS), S. pneumoniae 49619; conditions: cation-adjusted Mueller-Hinton Broth, pH 7.2-7.3
Procedure: as §1

[3] = tested on: M. catarrhalis A894; assay: MIC by broth microdilution (NCCLS), M. catarrhalis A894; conditions: cation-adjusted Mueller-Hinton Broth, pH 7.2-7.3
Procedure: as §1

MIC S. aureus A798 ([1]; second table)	Molecule	further results
2 µg/mL (≈ 4.19 µM)	COc1ccc2nccc(OCC3CCC4(CC3)CN(c3ccc5c(c3)OCCO5)C(=O)O4)c2n1 (stereo not drawn) [Example 3, cis-3-(2,3-dihydro-benzo[1,4]dioxin-6-yl)-8-(6-methoxy-[1,5]naphthyridin-4-yloxymethyl)-1-oxa-3-aza-spiro[4.5]decan-2-one]	
0.25 µg/mL (≈ 0.509 µM)	COc1ccc2nccc(CCC3(O)CCC4(CC3)CN(c3ccc5c(c3)OCCO5)C(=O)O4)c2n1 (stereo not drawn) [Example 11, cis or trans-3-(2,3-dihydro-benzo[1,4]dioxin-6-yl)-8-hydroxy-8-[2-(6-methoxy-[1,5]naphthyridin-4-yl)-ethyl]-1-oxa-3-aza-spiro[4.5]decan-2-one]	
2 µg/mL	COc1ccc2nccc(/C=C/C3CCC4(CC3)CN(c3ccc5c(c3)OCCO5)C(=O)O4)c2c1 (mixture of isomers) [Example 17, cis/trans-3-(2,3-dihydro-benzo[1,4]dioxin-6-yl)-8-[(E)-2-(6-methoxy-quinolin-4-yl)-vinyl]-1-oxa-3-aza-spiro[4.5]decan-2-one]	
	COc1ccc2nccc([C@@H](O)CN3CC[C@]4(CN(c5ccc6c(c5)OCCO6)C(=O)O4)[C@H](CCO)C3)c2c1 (racemic) [Example 8, (5RS, 6RS)-3-(2,3-dihydro-benzo[1,4]dioxin-6-yl)-6-(2-hydroxy-ethyl)-8-[(2RS)-2-hydroxy-2-(6-methoxy-quinolin-4-yl)-ethyl]-1-oxa-3,8-diaza-spiro[4.5]decan-2-one]	MIC [1]: 1 µg/mL (≈ 1.87 µM)
0.125 µg/mL (≈ 0.254 µM)	COc1ccc2nccc(CCC3(O)CCC4(CC3)CN(c3ccc5c(c3)OCCO5)C(=O)O4)c2n1 (stereo not drawn) [Example 10, cis or trans-3-(2,3-dihydro-benzo[1,4]dioxin-6-yl)-8-hydroxy-8-[2-(6-methoxy-[1,5]naphthyridin-4-yl)-ethyl]-1-oxa-3-aza-spiro[4.5]decan-2-one]	
≦0.031 mg/l	COc1ccc2nccc(CCC3CCC4(CC3)CN(c3ccc5c(c3)NC(=O)CO5)C(=O)O4)c2n1 (mixture of isomers) [Example 16, cis/trans-6-{8-[2-(6-methoxy-[1,5]naphthyridin-4-yl)-ethyl]-2-oxo-1-oxa-3-aza-spiro[4.5]dec-3-yl}-4H-benzo[1,4]oxazin-3-one]	
≦0.031 mg/l	COc1ccc2nccc(CCC3(O)CCC4(CC3)CN(c3ccc5c(c3)NC(=O)CS5)C(=O)O4)c2n1 (stereo not drawn) [Example 13, cis or trans-6-{8-hydroxy-8-[2-(6-methoxy-[1,5]naphthyridin-4-yl)-ethyl]-2-oxo-1-oxa-3-aza-spiro[4.5]dec-3-yl}-4H-benzo[1,4]thiazin-3-one]	
0.25 µg/mL (≈ 0.525 µM)	COc1ccc2nccc(OCC3CCC4(CC3)CN(c3ccc5c(c3)OCCO5)C(=O)O4)c2c1 (stereo not drawn) [Example 2, cis-3-(2,3-dihydro-benzo[1,4]dioxin-6-yl)-8-(6-methoxy-quinolin-4-yloxymethyl)-1-oxa-3-aza-spiro[4.5]decan-2-one]	
≦0.031 mg/l	COc1ccc2nccc(CCC3(O)CCC4(CC3)CN(c3ccc5c(c3)NC(=O)CO5)C(=O)O4)c2n1 (stereo not drawn) [Example 15, cis or trans-6-{8-hydroxy-8-[2-(6-methoxy-[1,5]naphthyridin-4-yl)-ethyl]-2-oxo-1-oxa-3-aza-spiro[4.5]dec-3-yl}-4H-benzo[1,4]oxazin-3-one]	
	COc1ccc2nccc(C(O)CN3CCC4(CC3)CN(c3ccc5c(c3)OCCO5)C(=O)O4)c2c1 (racemic) [Example 4, 3-(2,3-dihydro-benzo[1,4]dioxin-6-yl)-8-[(2RS)-2-hydroxy-2-(6-methoxy-quinolin-4-yl)-ethyl]-1-oxa-3,8-diaza-spiro[4.5]decan-2-one]	MIC [1]: ≤ 0.031 µg/mL
	COC(=O)C[C@@H]1CN(C[C@H](O)c2ccnc3ccc(OC)cc23)CC[C@]12CN(c1ccc3c(c1)OCCO3)C(=O)O2 (racemic) [Example 7, (5RS,6RS)-{3-(2,3-dihydro-benzo[1,4]dioxin-6-yl)-8-[(2RS)-2-hydroxy-2-(6-methoxy-quinolin-4-yl)-ethyl]-2-oxo-1-oxa-3,8-diaza-spiro[4.5]dec-6-yl}-acetic acid methyl ester]	MIC [1]: 2 µg/mL (≈ 3.55 µM)
≦0.031 mg/l	COc1ccc2nccc(/C=C/C3CCC4(CC3)CN(c3ccc5c(c3)NC(=O)CS5)C(=O)O4)c2c1 (mixture of isomers) [Example 18, cis/trans-6-{8-[(E)-2-(6-methoxy-quinolin-4-yl)-vinyl]-2-oxo-1-oxa-3-aza-spiro[4.5]dec-3-yl}-4H-benzo[1,4]thiazin-3-one]	MIC S. pneumoniae 49619 [2]: 0.125 µg/mL; MIC S. aureus A798 [1]: ≦0.031 mg/l; MIC M. catarrhalis A894 [3]: ≦0.031 mg/l
≦0.031 mg/l	COc1ccc2nccc(NC(=O)C3CCC4(CC3)CN(c3ccc5c(c3)OCCO5)C(=O)O4)c2n1 (mixture of isomers) [Example 9, cis/trans-3-(2,3-dihydro-benzo[1,4]dioxin-6-yl)-2-oxo-1-oxa-3-aza-spiro[4.5]decane-8-carboxylic acid (6-methoxy-[1,5]naphthyridin-4-yl)-amide]	
	C=CC[C@@H]1CN(C[C@H](O)c2ccnc3ccc(OC)cc23)CC[C@]12CN(c1ccc3c(c1)OCCO3)C(=O)O2 (racemic) [Example 6, (5RS, 6RS)-6-allyl-3-(2,3-dihydro-benzo[1,4]dioxin-6-yl)-8-[(2RS)-2-hydroxy-2-(6-methoxy-quinolin-4-yl)-ethyl]-1-oxa-3,8-diaza-spiro[4.5]decan-2-one]	MIC [1]: 1 µg/mL (≈ 1.88 µM)
	COc1ccc2nccc(C(O)CN3CCC4(CC3)CN(c3ccc5c(c3)NC(=O)CS5)C(=O)O4)c2c1 (racemic) [Example 5, 6-{8-[(2RS)-2-hydroxy-2-(6-methoxy-quinolin-4-yl)-ethyl]-2-oxo-1-oxa-3,8-diaza-spiro[4.5]dec-3-yl}-4H-benzo[1,4]thiazin-3-one]	MIC [1]: ≤ 0.031 µg/mL
≦0.031 mg/l	COc1ccc2nccc(CCC3(O)CCC4(CC3)CN(c3ccc5c(c3)NC(=O)CS5)C(=O)O4)c2n1 (stereo not drawn) [Example 12, cis or trans-6-{8-hydroxy-8-[2-(6-methoxy-[1,5]naphthyridin-4-yl)-ethyl]-2-oxo-1-oxa-3-aza-spiro[4.5]dec-3-yl}-4H-benzo[1,4]thiazin-3-one]	
0.125 µg/mL (≈ 0.262 µM)	COc1ccc2ncnc(OC[C@H]3CC[C@@]4(CC3)CN(c3ccc5c(c3)OCCO5)C(=O)O4)c2c1 [Example 19, cis-3-(2,3-dihydro-benzo[1,4]dioxin-6-yl)-8-(6-methoxy-quinazolin-4-yloxymethyl)-1-oxa-3-aza-spiro[4.5]decan-2-one]	MIC S. pneumoniae 49619 [2]: 0.25 µg/mL (≈ 0.524 µM); MIC S. aureus A798 [1]: 0.125 µg/mL (≈ 0.262 µM); MIC M. catarrhalis A894 [3]: 0.5 µg/mL (≈ 1.05 µM)
≦0.031 mg/l	COc1ccc2nccc(CCC3(O)CCC4(CC3)CN(c3ccc5c(c3)NC(=O)CO5)C(=O)O4)c2n1 (stereo not drawn) [Example 14, cis or trans-6-{8-hydroxy-8-[2-(6-methoxy-[1,5]naphthyridin-4-yl)-ethyl]-2-oxo-1-oxa-3-aza-spiro[4.5]dec-3-yl}-4H-benzo[1,4]oxazin-3-one]	

Molecule	MIC S. aureus A798 ([1]; second table)	further results
(5R,6R,8S)-3-(2,3-dihydro-benzo[1,4]dioxin-6-yl)-8-[(2R)-2-hydroxy-2-(6-methoxy-[1,5]naphthyridin-4-yl)-ethyl]-6-hydroxymethyl-1,7-dioxa-3-aza-spiro[4.5]decan-2-one and (5R,6R,8S)-3-(2,3-dihydro-benzo[1,4]dioxin-6-yl)-8-[(2S)-2-hydroxy-2-(6-methoxy-[1,5]naphthyridin-4-yl)-ethyl]-6-hydroxymethyl-1,7-dioxa-3-aza-spiro[4.5]decan-2-one [Example 1]	0.5 µg/mL	
